Data published in PubChem BioAssay AID2060508 (Molecular Pharmacology Branch, DTP, NCI, 2025).

Tested on: 454973-116-R2-J3-PDC spheroids, viability, % test/control
Assay: Anticancer human tumor 454973-116-R2-J3-PDC patient-derived pancreatic carcinoma cell line growth inhibition [GQUAD]
Settings: spheroids with HUVEC and MSC; for IC50: curve of first compound; for viability, T/C: stronger effect = lower value
In short: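 Multi-cell-type spheroids of tumor cells with HUVEC and mesenchymal stem cells, treated with drug combinations. Concentrations descend in half-log steps from near clinical Cmax, or from 10 microM where Cmax is unknown; viability read-out.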

[1] = second compound 0.0316 µM, first compound 0.000999 µM
[2] = second compound 0.0316 µM, first compound 0.00316 µM
[3] = second compound 0.0316 µM, first compound 0.00999 µM
[4] = second compound 0.0316 µM, first compound 0.0316 µM
[5] = second compound 0.0316 µM, first compound 0.0999 µM
[6] = second compound 0.0316 µM, first compound 0.316 µM
[7] = second compound 0.1 µM, first compound 0.000999 µM
[8] = second compound 0.1 µM, first compound 0.00316 µM
[9] = second compound 0.1 µM, first compound 0.00999 µM
[10] = second compound 0.1 µM, first compound 0.0316 µM
[11] = second compound 0.1 µM, first compound 0.0999 µM
[12] = second compound 0.1 µM, first compound 0.316 µM
[13] = second compound 0.316 µM, first compound 0.000999 µM
[14] = second compound 0.316 µM, first compound 0.00316 µM
[15] = second compound 0.316 µM, first compound 0.00999 µM
[16] = second compound 0.316 µM, first compound 0.0316 µM
[17] = second compound 0.316 µM, first compound 0.0999 µM
[18] = second compound 0.316 µM, first compound 0.316 µM
[19] = second compound 1 µM, first compound 0.000999 µM
[20] = second compound 1 µM, first compound 0.00316 µM
[21] = second compound 1 µM, first compound 0.00999 µM
[22] = second compound 1 µM, first compound 0.0316 µM
[23] = second compound 1 µM, first compound 0.0999 µM
[24] = second compound 1 µM, first compound 0.316 µM
[25] = second compound 3.16 µM, first compound 0.000999 µM
[26] = second compound 3.16 µM, first compound 0.00316 µM
[27] = second compound 3.16 µM, first compound 0.00999 µM
[28] = second compound 3.16 µM, first compound 0.0316 µM
[29] = second compound 3.16 µM, first compound 0.0999 µM
[30] = second compound 3.16 µM, first compound 0.316 µM
[31] = second compound 10 µM, first compound 0.000999 µM
[32] = second compound 10 µM, first compound 0.00316 µM
[33] = second compound 10 µM, first compound 0.00999 µM
[34] = second compound 10 µM, first compound 0.0316 µM
[35] = second compound 10 µM, first compound 0.0999 µM
[36] = second compound 10 µM, first compound 0.316 µM
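Also: spheroids exposed to compounds for seven days.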
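For viability, T/C in this document: 100% = DMSO vehicle control viability.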

`CC[C@@]1(O)C(=O)OCc2c1cc1n(c2=O)Cc2cc3c(CN(C)C)c(O)ccc3nc2-1` + Cc1cnc(CNC(=O)c2c(=O)c3ccc(N4CCCN(C)CC4)nc3n3c2sc2ccccc23)cn1 was tested. Which IC50 (second compound 0.0316 µM) did it give?
The IC50 was 0.0295 µM.

And the IC50 (second compound 0.1 µM)?
The IC50 was 0.0204 µM.

What about the IC50 (second compound 0.316 µM) of the same compound?
Its IC50 is 0.0175 µM.

And the IC50 (second compound 1 µM)?
The IC50 was 0.0244 µM.

And the IC50 (second compound 3.16 µM)?
Its IC50 is 0.189 µM.

And the IC50 (second compound 10 µM)?
The IC50 was less than 0.000999 µM.

And the viability, T/C [1]?
Its viability, T/C is 104%.

What about the viability, T/C [2] of the same compound?
Its viability, T/C is 95.8%.

And the viability, T/C [3]?
Its viability, T/C is 84.9%.

What about the viability, T/C [4] of the same compound?
The viability, T/C was 49%.

What about the viability, T/C [5] of the same compound?
Its viability, T/C is 21.9%.

And the viability, T/C [6]?
The viability, T/C was 23.7%.

And the viability, T/C [7]?
Its viability, T/C is 90.8%.

What about the viability, T/C [8] of the same compound?
Its viability, T/C is 90.2%.

What about the viability, T/C [9] of the same compound?
Its viability, T/C is 77%.

And the viability, T/C [10]?
The viability, T/C was 33.4%.

And the viability, T/C [11]?
Its viability, T/C is 24.8%.

And the viability, T/C [12]?
Its viability, T/C is 23.1%.

And the viability, T/C [13]?
The viability, T/C was 79.9%.

What about the viability, T/C [14] of the same compound?
Its viability, T/C is 69.1%.

And the viability, T/C [15]?
The viability, T/C was 55.6%.

And the viability, T/C [16]?
The viability, T/C was 43.1%.

What about the viability, T/C [17] of the same compound?
The viability, T/C was 39.2%.

What about the viability, T/C [18] of the same compound?
Its viability, T/C is 32.9%.

What about the viability, T/C [19] of the same compound?
The viability, T/C was 67.1%.

What about the viability, T/C [20] of the same compound?
Its viability, T/C is 67.6%.

What about the viability, T/C [21] of the same compound?
The viability, T/C was 54.9%.

And the viability, T/C [22]?
The viability, T/C was 48.4%.

What about the viability, T/C [23] of the same compound?
The viability, T/C was 50%.

And the viability, T/C [24]?
The viability, T/C was 47.4%.

And the viability, T/C [25]?
The viability, T/C was 61.2%.

And the viability, T/C [26]?
The viability, T/C was 63.4%.

What about the viability, T/C [27] of the same compound?
Its viability, T/C is 60.2%.

And the viability, T/C [28]?
The viability, T/C was 49.6%.

What about the viability, T/C [29] of the same compound?
The viability, T/C was 61.7%.

What about the viability, T/C [30] of the same compound?
The viability, T/C was 42.7%.

And the viability, T/C [31]?
Its viability, T/C is 19.2%.

What about the viability, T/C [32] of the same compound?
Its viability, T/C is 17.5%.

And the viability, T/C [33]?
The viability, T/C was 57%.

What about the viability, T/C [34] of the same compound?
Its viability, T/C is 45.9%.

What about the viability, T/C [35] of the same compound?
Its viability, T/C is 0.31%.

What about the viability, T/C [36] of the same compound?
Its viability, T/C is 0.23%.

How did the IC50 (second compound 0.0316 µM) turn out when `CCc1c2c(nc3ccc(O)cc13)-c1cc3c(c(=O)n1C2)COC(=O)[C@]3(O)CC` + Cc1cnc(CNC(=O)c2c(=O)c3ccc(N4CCCN(C)CC4)nc3n3c2sc2ccccc23)cn1 was run?
Its IC50 is less than 0.000999 µM.

What about the IC50 (second compound 0.1 µM) of the same compound?
The IC50 was less than 0.000999 µM.

What about the IC50 (second compound 0.316 µM) of the same compound?
The IC50 was less than 0.000999 µM.

And the IC50 (second compound 1 µM)?
The IC50 was 0.00145 µM.

What about the IC50 (second compound 3.16 µM) of the same compound?
Its IC50 is 0.00404 µM.

And the IC50 (second compound 10 µM)?
Its IC50 is less than 0.000999 µM.

And the viability, T/C [1]?
The viability, T/C was 45.7%.

What about the viability, T/C [2] of the same compound?
Its viability, T/C is 24.6%.

What about the viability, T/C [3] of the same compound?
Its viability, T/C is 22.9%.

What about the viability, T/C [4] of the same compound?
Its viability, T/C is 12.3%.

What about the viability, T/C [5] of the same compound?
The viability, T/C was 7.38%.

What about the viability, T/C [6] of the same compound?
Its viability, T/C is 4.15%.

And the viability, T/C [7]?
The viability, T/C was 36.2%.

And the viability, T/C [8]?
Its viability, T/C is 24.1%.

What about the viability, T/C [9] of the same compound?
Its viability, T/C is 22.9%.

And the viability, T/C [10]?
The viability, T/C was 14.8%.

What about the viability, T/C [11] of the same compound?
Its viability, T/C is 7.21%.

And the viability, T/C [12]?
The viability, T/C was 4.8%.

And the viability, T/C [13]?
The viability, T/C was 37.7%.

What about the viability, T/C [14] of the same compound?
The viability, T/C was 34.2%.

And the viability, T/C [15]?
The viability, T/C was 33.7%.

And the viability, T/C [16]?
The viability, T/C was 15.9%.

And the viability, T/C [17]?
Its viability, T/C is 7.83%.

What about the viability, T/C [18] of the same compound?
Its viability, T/C is 4.86%.

And the viability, T/C [19]?
The viability, T/C was 47.1%.

And the viability, T/C [20]?
The viability, T/C was 54.1%.

And the viability, T/C [21]?
Its viability, T/C is 36.5%.

What about the viability, T/C [22] of the same compound?
The viability, T/C was 22.2%.

What about the viability, T/C [23] of the same compound?
The viability, T/C was 7.17%.

And the viability, T/C [24]?
Its viability, T/C is 2.75%.

What about the viability, T/C [25] of the same compound?
Its viability, T/C is 59.7%.

And the viability, T/C [26]?
Its viability, T/C is 51.9%.

What about the viability, T/C [27] of the same compound?
Its viability, T/C is 40%.

What about the viability, T/C [28] of the same compound?
Its viability, T/C is 26.1%.

And the viability, T/C [29]?
Its viability, T/C is 7.65%.

And the viability, T/C [30]?
Its viability, T/C is 0.55%.

And the viability, T/C [31]?
Its viability, T/C is 16.4%.

What about the viability, T/C [32] of the same compound?
Its viability, T/C is 16.7%.

And the viability, T/C [33]?
The viability, T/C was 38.7%.

What about the viability, T/C [34] of the same compound?
Its viability, T/C is 0.26%.

And the viability, T/C [35]?
The viability, T/C was 0.24%.

What about the viability, T/C [36] of the same compound?
The viability, T/C was 0.7%.

Which results are given for `COc1cccc2c1C(=O)c1c(O)c3c(c(O)c1C2=O)CC(O)(C(=O)CO)CC3OC1CC(N)C(O)C(C)O1` (stereo unspecified) + Cc1cnc(CNC(=O)c2c(=O)c3ccc(N4CCCN(C)CC4)nc3n3c2sc2ccccc23)cn1?
IC50 (second compound 0.0316 µM): 0.166 µM; IC50 (second compound 0.1 µM): 0.184 µM; IC50 (second compound 0.316 µM): 0.418 µM; IC50 (second compound 1 µM): 0.746 µM; IC50 (second compound 3.16 µM): 0.763 µM; IC50 (second compound 10 µM): < 0.0316 µM; viability, T/C [4]: 92.9%; viability, T/C (second compound 0.0316 µM, first compound 0.1 µM): 52.9%; viability, T/C [6]: 37.9%; viability, T/C (second compound 0.0316 µM, first compound 1 µM): 28.8%; viability, T/C (second compound 0.0316 µM, first compound 3.16 µM): 12.9%; viability, T/C (second compound 0.0316 µM, first compound 10 µM): 0.39%; viability, T/C [10]: 74.5%; viability, T/C (second compound 0.1 µM, first compound 0.1 µM): 45.4%; viability, T/C [12]: 43.4%; viability, T/C (second compound 0.1 µM, first compound 1 µM): 41%; viability, T/C (second compound 0.1 µM, first compound 3.16 µM): 13.4%; viability, T/C (second compound 0.1 µM, first compound 10 µM): 0.51%; viability, T/C [16]: 66.4%; viability, T/C (second compound 0.316 µM, first compound 0.1 µM): 52.3%; viability, T/C [18]: 49.3%; viability, T/C (second compound 0.316 µM, first compound 1 µM): 44%; viability, T/C (second compound 0.316 µM, first compound 3.16 µM): 12%; viability, T/C (second compound 0.316 µM, first compound 10 µM): 0.51%; viability, T/C [22]: 62.4%; viability, T/C (second compound 1 µM, first compound 0.1 µM): 54.9%; viability, T/C [24]: 62.8%; viability, T/C (second compound 1 µM, first compound 1 µM): 46.2%; viability, T/C (second compound 1 µM, first compound 3.16 µM): 12.3%; viability, T/C (second compound 1 µM, first compound 10 µM): 0.26%; viability, T/C [28]: 68%; viability, T/C (second compound 3.16 µM, first compound 0.1 µM): 69.2%; viability, T/C [30]: 63.3%; viability, T/C (second compound 3.16 µM, first compound 1 µM): 46%; viability, T/C (second compound 3.16 µM, first compound 3.16 µM): 11%; viability, T/C (second compound 3.16 µM, first compound 10 µM): 0.67%; viability, T/C [34]: 15.2%; viability, T/C (second compound 10 µM, first compound 0.1 µM): 20%; viability, T/C [36]: 43.8%; viability, T/C (second compound 10 µM, first compound 1 µM): 27.7%; viability, T/C (second compound 10 µM, first compound 3.16 µM): 0.35%; viability, T/C (second compound 10 µM, first compound 10 µM): 0.21%
